Experimental data: the supplement of paper PMC10307832

Legend:
Assay in all cases: relative viability (nuclei count vs DMSO), 5 days (fraction); higher = more cells survive
RO-3306 + Pemetrexed = compound: C1=CC2=C(C=CC(=C2)C=C3C(=O)NC(=NCC4=CC=CS4)S3)N=C1 [RO-3306] + Nc1nc2[nH]cc(CCc3ccc(C(=O)N[C@@H](CCC(=O)O)C(=O)O)cc3)c2c(=O)[nH]1 [Pemetrexed] (partner 0.2 µM)
Summary of the method: (§1)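 Relative viability was taken as the ratio of nuclei in treated wells to nuclei in vehicle wells. Lung cancer cell lines in 1536-well plates received compounds by pin tool one day after seeding, either one drug alone or a fixed anchor-drug dose plus five library-drug doses (not always all listed) in √10 steps. Nuclei were counted on 4× images after 5 days of treatment, and values are medians of duplicate plates.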

[1] = compound: O=S(=O)(c1ccccc1)N(CC(F)(F)F)c1ccc(C(O)(C(F)(F)F)C(F)(F)F)cc1 + CC(=O)c1c(C)c2cnc(Nc3ccc(N4CCNCC4)cn3)nc2n(C2CCCC2)c1=O [Palbociclib] (partner 0.5 µM)
Summary of the method: as §1

RO-3306 + Luminespib = compound: C1=CC2=C(C=CC(=C2)C=C3C(=O)NC(=NCC4=CC=CS4)S3)N=C1 [RO-3306] + CCNC(=O)c1noc(-c2cc(C(C)C)c(O)cc2O)c1-c1ccc(CN2CCOCC2)cc1 [Luminespib] (partner 0.01 µM)
Summary of the method: as §1

[2] = compound: O=S(=O)(c1ccccc1)N(CC(F)(F)F)c1ccc(C(O)(C(F)(F)F)C(F)(F)F)cc1 + CS(=O)(=O)N1CCN(Cc2cc3nc(-c4cccc5[nH]ncc45)nc(N4CCOCC4)c3s2)CC1 [Pictilisib] (partner 1 µM)
Summary of the method: as §1

Cell Line EMC-BAC-2 has a relative viability (RO-3306 + Pemetrexed; first compound 0.01 µM) of 0.427, a relative viability (RO-3306 + Pemetrexed; first compound 0.03162 µM) of 0.423 and a relative viability (RO-3306 + Pemetrexed; first compound 0.1 µM) of 0.431. It also gave a relative viability (RO-3306 + Pemetrexed; first compound 0.3162 µM) of 0.458, a relative viability (RO-3306 + Pemetrexed; first compound 1 µM) of 0.394 and a relative viability ([1]; first compound 0.8 µM) of 0.525. For the same cell line, the relative viability ([1]; first compound 2.53 µM) was 0.473, the relative viability ([1]; first compound 8 µM) was 0.5 and the relative viability (RO-3306 + Luminespib; first compound 0.01 µM) was 1.25. For the same cell line, the relative viability (RO-3306 + Luminespib; first compound 0.03162 µM) was 0.983, the relative viability (RO-3306 + Luminespib; first compound 0.1 µM) was 1.23 and the relative viability (RO-3306 + Luminespib; first compound 0.3162 µM) was 1.16. It also gave a relative viability (RO-3306 + Luminespib; first compound 1 µM) of 1.15, a relative viability ([2]; first compound 0.8 µM) of 0.626 and a relative viability ([2]; first compound 2.53 µM) of 0.561. It also gave a relative viability ([2]; first compound 8 µM) of 0.634.

With EPLC-272H the relative viability (RO-3306 + Pemetrexed; first compound 0.01 µM) was 0.36, the relative viability (RO-3306 + Pemetrexed; first compound 0.03162 µM) was 0.436 and the relative viability (RO-3306 + Pemetrexed; first compound 0.1 µM) was 0.406. The relative viability (RO-3306 + Pemetrexed; first compound 0.3162 µM) was 0.3, the relative viability (RO-3306 + Pemetrexed; first compound 1 µM) was 0.247 and the relative viability ([1]; first compound 0.8 µM) was 0.357. The relative viability ([1]; first compound 2.53 µM) was 0.286, the relative viability ([1]; first compound 8 µM) was 0.261 and the relative viability (RO-3306 + Luminespib; first compound 0.01 µM) was 0.239. The relative viability (RO-3306 + Luminespib; first compound 0.03162 µM) was 0.114, the relative viability (RO-3306 + Luminespib; first compound 0.1 µM) was 0.142 and the relative viability (RO-3306 + Luminespib; first compound 0.3162 µM) was 0.367. For the same cell line, the relative viability (RO-3306 + Luminespib; first compound 1 µM) was 0.111, the relative viability ([2]; first compound 0.8 µM) was 0.316 and the relative viability ([2]; first compound 2.53 µM) was 0.302. The relative viability ([2]; first compound 8 µM) was 0.35.

H3255 was tested, and the relative viability (RO-3306 + Pemetrexed; first compound 0.01 µM) was 0.506, the relative viability (RO-3306 + Pemetrexed; first compound 0.03162 µM) was 0.501 and the relative viability (RO-3306 + Pemetrexed; first compound 0.1 µM) was 0.547. For the same cell line, the relative viability (RO-3306 + Pemetrexed; first compound 0.3162 µM) was 0.57, the relative viability (RO-3306 + Pemetrexed; first compound 1 µM) was 0.57 and the relative viability ([1]; first compound 0.8 µM) was 0.319. For the same cell line, the relative viability ([1]; first compound 2.53 µM) was 0.313, the relative viability ([1]; first compound 8 µM) was 0.28 and the relative viability (RO-3306 + Luminespib; first compound 0.01 µM) was 0.899. It also gave a relative viability (RO-3306 + Luminespib; first compound 0.03162 µM) of 0.938, a relative viability (RO-3306 + Luminespib; first compound 0.1 µM) of 0.763 and a relative viability (RO-3306 + Luminespib; first compound 0.3162 µM) of 0.837. The relative viability (RO-3306 + Luminespib; first compound 1 µM) was 0.866, the relative viability ([2]; first compound 0.8 µM) was 0.492 and the relative viability ([2]; first compound 2.53 µM) was 0.51. The relative viability ([2]; first compound 8 µM) was 0.396.

With HARA the relative viability (RO-3306 + Pemetrexed; first compound 0.01 µM) was 0.242, the relative viability (RO-3306 + Pemetrexed; first compound 0.1 µM) was 0.227 and the relative viability (RO-3306 + Pemetrexed; first compound 0.3162 µM) was 0.24. The relative viability (RO-3306 + Pemetrexed; first compound 1 µM) was 0.288, the relative viability ([1]; first compound 0.8 µM) was 0.246 and the relative viability ([1]; first compound 2.53 µM) was 0.244. It also gave a relative viability ([1]; first compound 8 µM) of 0.27, a relative viability (RO-3306 + Luminespib; first compound 0.01 µM) of 0.485 and a relative viability (RO-3306 + Luminespib; first compound 0.03162 µM) of 0.509. It also gave a relative viability (RO-3306 + Luminespib; first compound 0.1 µM) of 0.676, a relative viability (RO-3306 + Luminespib; first compound 0.3162 µM) of 0.455 and a relative viability (RO-3306 + Luminespib; first compound 1 µM) of 0.679. For the same cell line, the relative viability ([2]; first compound 0.8 µM) was 0.43, the relative viability ([2]; first compound 2.53 µM) was 0.317 and the relative viability ([2]; first compound 8 µM) was 0.293.

HCC-15 gave a relative viability (RO-3306 + Pemetrexed; first compound 0.01 µM) of 0.203, a relative viability (RO-3306 + Pemetrexed; first compound 0.03162 µM) of 0.21 and a relative viability (RO-3306 + Pemetrexed; first compound 0.1 µM) of 0.26. The relative viability (RO-3306 + Pemetrexed; first compound 0.3162 µM) was 0.225, the relative viability (RO-3306 + Pemetrexed; first compound 1 µM) was 0.199 and the relative viability ([1]; first compound 0.8 µM) was 0.703. The relative viability ([1]; first compound 2.53 µM) was 0.567, the relative viability ([1]; first compound 8 µM) was 0.642 and the relative viability (RO-3306 + Luminespib; first compound 0.01 µM) was 0.488. It also gave a relative viability (RO-3306 + Luminespib; first compound 0.03162 µM) of 0.42, a relative viability (RO-3306 + Luminespib; first compound 0.1 µM) of 0.355 and a relative viability (RO-3306 + Luminespib; first compound 0.3162 µM) of 0.315. It also gave a relative viability (RO-3306 + Luminespib; first compound 1 µM) of 0.418, a relative viability ([2]; first compound 0.8 µM) of 0.785 and a relative viability ([2]; first compound 2.53 µM) of 0.684. It also gave a relative viability ([2]; first compound 8 µM) of 0.654.

With HCC-44 the relative viability (RO-3306 + Pemetrexed; first compound 0.01 µM) was 0.712, the relative viability (RO-3306 + Pemetrexed; first compound 0.03162 µM) was 0.643 and the relative viability (RO-3306 + Pemetrexed; first compound 0.1 µM) was 0.651. For the same cell line, the relative viability (RO-3306 + Pemetrexed; first compound 0.3162 µM) was 0.622, the relative viability (RO-3306 + Pemetrexed; first compound 1 µM) was 0.744 and the relative viability ([1]; first compound 0.8 µM) was 0.982. For the same cell line, the relative viability ([1]; first compound 2.53 µM) was 0.913, the relative viability ([1]; first compound 8 µM) was 0.903 and the relative viability (RO-3306 + Luminespib; first compound 0.01 µM) was 1.2. It also gave a relative viability (RO-3306 + Luminespib; first compound 0.03162 µM) of 1.13, a relative viability (RO-3306 + Luminespib; first compound 0.1 µM) of 1.02 and a relative viability (RO-3306 + Luminespib; first compound 0.3162 µM) of 1.11. It also gave a relative viability (RO-3306 + Luminespib; first compound 1 µM) of 0.922, a relative viability ([2]; first compound 0.8 µM) of 0.657 and a relative viability ([2]; first compound 2.53 µM) of 0.52. It also gave a relative viability ([2]; first compound 8 µM) of 0.688.

For HCC-78, the relative viability (RO-3306 + Pemetrexed; first compound 0.01 µM) was 0.948, the relative viability (RO-3306 + Pemetrexed; first compound 0.03162 µM) was 0.83 and the relative viability (RO-3306 + Pemetrexed; first compound 0.1 µM) was 0.91. The relative viability (RO-3306 + Pemetrexed; first compound 0.3162 µM) was 0.9, the relative viability (RO-3306 + Pemetrexed; first compound 1 µM) was 0.923 and the relative viability ([1]; first compound 0.8 µM) was 0.522. The relative viability ([1]; first compound 2.53 µM) was 0.445, the relative viability ([1]; first compound 8 µM) was 0.475 and the relative viability ([2]; first compound 0.8 µM) was 0.157. It also gave a relative viability ([2]; first compound 2.53 µM) of 0.193 and a relative viability ([2]; first compound 8 µM) of 0.252.

With HCC-366 the relative viability (RO-3306 + Pemetrexed; first compound 0.01 µM) was 0.215, the relative viability (RO-3306 + Pemetrexed; first compound 0.03162 µM) was 0.194 and the relative viability (RO-3306 + Pemetrexed; first compound 0.1 µM) was 0.198. It also gave a relative viability (RO-3306 + Pemetrexed; first compound 0.3162 µM) of 0.137, a relative viability (RO-3306 + Pemetrexed; first compound 1 µM) of 0.213 and a relative viability ([1]; first compound 0.8 µM) of 0.649. The relative viability ([1]; first compound 2.53 µM) was 0.379, the relative viability ([1]; first compound 8 µM) was 0.239 and the relative viability ([2]; first compound 0.8 µM) was 0.181. For the same cell line, the relative viability ([2]; first compound 2.53 µM) was 0.165 and the relative viability ([2]; first compound 8 µM) was 0.135.

HCC-827 showed a relative viability (RO-3306 + Pemetrexed; first compound 0.01 µM) of 0.265, a relative viability (RO-3306 + Pemetrexed; first compound 0.03162 µM) of 0.26 and a relative viability (RO-3306 + Pemetrexed; first compound 0.1 µM) of 0.27. The relative viability (RO-3306 + Pemetrexed; first compound 0.3162 µM) was 0.254, the relative viability (RO-3306 + Pemetrexed; first compound 1 µM) was 0.277 and the relative viability ([1]; first compound 0.8 µM) was 0.513. For the same cell line, the relative viability ([1]; first compound 2.53 µM) was 0.418, the relative viability ([1]; first compound 8 µM) was 0.388 and the relative viability (RO-3306 + Luminespib; first compound 0.01 µM) was 0.502. The relative viability (RO-3306 + Luminespib; first compound 0.03162 µM) was 0.433, the relative viability (RO-3306 + Luminespib; first compound 0.1 µM) was 0.588 and the relative viability (RO-3306 + Luminespib; first compound 0.3162 µM) was 0.586. The relative viability (RO-3306 + Luminespib; first compound 1 µM) was 0.786, the relative viability ([2]; first compound 0.8 µM) was 1.08 and the relative viability ([2]; first compound 2.53 µM) was 1.05. It also gave a relative viability ([2]; first compound 8 µM) of 1.05.

With HOP-62 the relative viability (RO-3306 + Pemetrexed; first compound 0.01 µM) was 0.371, the relative viability (RO-3306 + Pemetrexed; first compound 0.03162 µM) was 0.438 and the relative viability (RO-3306 + Pemetrexed; first compound 0.1 µM) was 0.318. For the same cell line, the relative viability (RO-3306 + Pemetrexed; first compound 0.3162 µM) was 0.307, the relative viability (RO-3306 + Pemetrexed; first compound 1 µM) was 0.416 and the relative viability ([1]; first compound 0.8 µM) was 0.408. For the same cell line, the relative viability ([1]; first compound 2.53 µM) was 0.3, the relative viability ([1]; first compound 8 µM) was 0.355 and the relative viability (RO-3306 + Luminespib; first compound 0.01 µM) was 1.02. The relative viability (RO-3306 + Luminespib; first compound 0.03162 µM) was 0.926, the relative viability (RO-3306 + Luminespib; first compound 0.1 µM) was 0.976 and the relative viability (RO-3306 + Luminespib; first compound 0.3162 µM) was 0.925. It also gave a relative viability (RO-3306 + Luminespib; first compound 1 µM) of 0.894, a relative viability ([2]; first compound 0.8 µM) of 1.07 and a relative viability ([2]; first compound 2.53 µM) of 0.361. For the same cell line, the relative viability ([2]; first compound 8 µM) was 0.763.

Work on IA-LM yielded a relative viability ([2]; first compound 0.8 µM) of 0.355, a relative viability ([2]; first compound 2.53 µM) of 0.305 and a relative viability ([2]; first compound 8 µM) of 0.524.
